The series can be described thus: logP determination via retention times, calibrated with unbranched alkan-2-ones. It counts as physicochemical.
[1] abbreviates: HPLC reversed-phase C 18, EEC Directive 79/831 Annex V.A8, method *: 40° C., 0.1% aqueous formic acid and acetonitrile, linear gradient 10% to 95% acetonitrile.
Where [2] appears, read: method *: HPLC reversed-phase C 18, temperature 40° C., mobile phase 0.1% aqueous formic acid and acetonitrile, linear gradient 10% to 95% acetonitrile.
Where [3] appears, read: HPLC on reversed-phase C18 column (EEC Directive 79/831 Annex V.A8), method *: 40° C., 0.1% aqueous formic acid and acetonitrile, linear gradient 10% to 95% acetonitrile.
[4] abbreviates: HPLC on reversed-phase C18, method *: 40° C., 0.1% aqueous formic acid and acetonitrile, linear gradient 10% to 95% acetonitrile.
Where [5] appears, read: method *: HPLC, reversed-phase C 18, 40° C., mobile phase 0.1% aqueous formic acid and acetonitrile, linear gradient from 10% to 95% acetonitrile.
Setting [6] is: method *: HPLC reversed-phase C18, 40° C., 0.1% aqueous formic acid and acetonitrile, linear gradient 10% to 95% acetonitrile.
Where [7] appears, read: HPLC on reversed-phase C 18, EEC Directive 79/831 Annex V.A8, method *: 40° C., 0.1% aqueous formic acid and acetonitrile, linear gradient 10% to 95% acetonitrile.

Marks after values point to notes of the source that are not given here.

As to `Clc1cnc(Nc2ccccc2)nc1NCC1CC1(Cl)Cl` (stereo not drawn) [compound 800], under setting [1], the logP is given as 2.46*. For the compound `CC(C)(C)C(=O)Nc1ccc(Nc2ncc(C(F)(F)F)c(NC3CC3)n2)cc1` [compound 647], the logP under setting [2] is on record as 2.46*. For `CC(=O)CCc1cccc(Nc2ncc(Cl)c(NC3CC3)n2)c1` [compound 841], the logP under setting [1] was 1.72*. With `FC(F)C(F)(F)Oc1cccc(Nc2ncc(Cl)c(NC3CC3)n2)c1` [compound 182], the logP under setting [3] was 3.03*. As to `COC(=O)Nc1ccc(Nc2ncc(Cl)c(NCC3CC3)n2)cc1` [compound 153], the logP under setting [4] is 1.44*.

For the compound `COC(C)c1cccc(Nc2ncc(Br)c(NC3CC3)n2)c1` (stereo not drawn) [compound 805], the logP under setting [1] is 2.08*. With `CCOC(=O)c1cc(Nc2ncc(Cl)c(NC3CC3)n2)ccc1Cl` [compound 990], the logP under setting [5] was 2.84*. In the case of `CC(Nc1nc(Nc2ccc(F)cc2)ncc1Cl)C1CC1` (stereo not drawn) [compound 167], under setting [4], the logP was 2.27*. Turning to `O=C1OCCN1c1ccc(Nc2ncc(Cl)c(NC3CC3)n2)cc1` [compound 83], the logP under setting [6] was 1.39*. On to `Clc1cnc(Nc2cccc(-c3cccs3)c2)nc1NC1CC1` [compound 197], for which the logP under setting [3] is recorded as 2.9*. On to `CCc1cccc(Nc2ncc(Cl)c(NCC3CC3)n2)c1` [compound 776], for which the logP under setting [1] is reported as 2.37*. On to `O=c1ccccn1-c1cccc(Nc2ncc(Cl)c(NC3CC3)n2)c1` [compound 726], for which, under setting [4], the logP is 1.39*. `Clc1cnc(Nc2cccc(N3CCCCC3)c2)nc1NC1CC1` [compound 535]: the logP under setting [7] is recorded as 1.45*. Turning to `Clc1cc(Nc2ncc(Cl)c(NC3CC3)n2)ccc1Br` [compound 919], the logP under setting [4] was 3.63*. Take `COC(=O)c1ccc(Nc2ncc(Br)c(NC3CC3)n2)cc1` [compound 762]: the logP under setting [4] is 2.4*.

In the case of `CSc1ccc(Nc2ncc(Br)c(NCC3CC3)n2)cc1` [compound 453], the logP under setting [6] is 2.29*. As for `N#CCc1cccc(Nc2ncc(Cl)c(NCC3CC3)n2)c1` [compound 821], the logP under setting [1] was 1.81*. For `CC(C)(C)OC(=O)N1CCN(c2ccc(Nc3ncc(Cl)c(NC4CC4)n3)cc2)CC1` [compound 7], the logP under setting [6] was 2.4*.

In the case of `Clc1cnc(Nc2cccc(C3CCCC3)c2)nc1NC1CC1` [compound 1066], the logP under setting [5] is recorded as 3.18*. For the compound `Fc1ccc(Nc2ncc(Cl)c(NC3CC3)n2)cc1` [Example 80], under setting [6], the logP was 1.8*. Take `Oc1cccc(Nc2ncc(Br)c(NC3CC3)n2)c1` [compound 765]: under setting [4], the logP is given as 1.39*. With `Cc1cc(C)nc(NS(=O)(=O)c2ccc(Nc3ncc(Cl)c(NC4CC4)n3)cc2)n1` [compound 26], the logP (method **: HPLC reversed-phase C 18, 43° C., 0.1% aqueous phosphoric acid and acetonitrile, linear gradient 10% to 95% acetonitrile) is 1.72**. Turning to `Brc1cnc(Nc2ccccc2)nc1NCCC1CC1` [compound 809], under setting [1], the logP is 2.18*. For the compound `CCOC(=O)Cc1ccc(Nc2ncc(Cl)c(NCC3CC3)n2)cc1` [compound 539], the logP under setting [7] is recorded as 2.09*. Turning to `O=C1OCCN1c1ccc(Nc2ncc(F)c(NC3CC3)n2)cc1` [compound 592], under setting [2], the logP was 1.23*.

On to `O=C(N(c1ccc(Nc2ncc(Cl)c(NC3CC3)n2)cc1)C1CC1)C(F)(F)F` [compound 120], for which the logP under setting [4] is reported as 2.54*. For the compound `Clc1cnc(Nc2ccccc2)nc1NC1CC1c1ccccc1` (stereo not drawn) [compound 1014], the logP (method **: HPLC, reversed-phase C 18, 43° C., mobile phase 0.1% aqueous phosphoric acid and acetonitrile, linear gradient from 10% to 95% acetonitrile) was 2.77**.

Take `CCOc1cccc(Nc2ncc(Cl)c(NC3CC3)n2)c1` [compound 293]: the logP (HPLC on reversed-phase C18, method *: 40° C., mobile phase 0.1% aqueous formic acid and acetonitrile, linear gradient 10% to 95% acetonitrile) is given as 2.06*. For the compound `CC(C)C(=O)Nc1ccc(Nc2ncc(Cl)c(NCC3CC3)n2)cc1` [compound 526], under setting [7], the logP was 1.73*. For `C#Cc1cccc(Nc2ncc(Cl)c(NC3CC3)n2)c1` [compound 502], under setting [7], the logP is 2.24*. For the compound `Fc1cccc(Nc2ncc(Cl)c(NC3CC3)n2)c1F` [compound 946], the logP under setting [4] is 2.53*. Consider `CCOC(=O)Nc1ccc(Nc2ncc(F)c(NC3CC3)n2)cc1` [compound 595], for which the logP under setting [2] is listed as 1.46*. Consider `CC(=O)c1cc(Nc2ncc(Br)c(NCC3CC3)n2)ccc1O` [compound 463], for which the logP under setting [6] is on record as 1.92*.

The values are drawn from patent publication US20100081679A1, “DIAMINOPYRIMIDINES AS FUNGICIDES” (Bayer CropScience AG, priority 2007, published 2010).
